For the test, the target named is T1, GS-D (Providencia rettgeri, UniProt A0ACG1W3V9).
T1 construct: gene KAH49_07450; full length, N-terminal 6xHis, pET28a in E. coli BL21(DE3), Ni-NTA
T1 sequence (A0ACG1W3V9 1-176): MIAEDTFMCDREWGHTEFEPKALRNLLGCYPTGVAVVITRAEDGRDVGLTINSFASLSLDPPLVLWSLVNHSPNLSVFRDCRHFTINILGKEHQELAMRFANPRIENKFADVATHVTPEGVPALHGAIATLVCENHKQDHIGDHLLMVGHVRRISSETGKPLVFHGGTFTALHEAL
The experiment in a line: NADH oxidation, absorbance at […] nm. Format: biochemical. The following applies: pH 8.0, 30 °C, 250 μM NADH, 100 μM FAD.

As to `NC(=O)C1=CN([C@@H]2O[C@H](COP(=O)(O)OP(=O)(O)OC[C@H]3O[C@@H](n4cnc5c(N)ncnc54)[C@H](O)[C@@H]3O)[C@@H](O)[C@H]2O)C=CC1` [NADH], the “NADH oxidation, absorbance at 340 nm” value is listed as “oxidation of NADH demonstrated the flavin reductase activity of the GS-D reductase”.

(Values after PMC9871250, “Identification of an indole biodegradation gene cluster from Providencia rettgeri and its contribution in selectively biosynthesizing Tyrian purple” (Frontiers in Bioengineering and Biotechnology, 2023).)
